Legend:
mRNA of IL-6 = test: Northern blot for IL-6 mRNA in LPS-activated macrophages; assay type: cell-based, Mouse; conditions: macrophages activated with LPS and exposed to peptide
Method: (§1) Mouse macrophages were submitted to the experimental conditions of examples 1 and 3 and their mRNA isolated. This was then analysed using the Northern Blot technique to detect mRNA of TNFα and IL-6.

circulating TNFα = test: Levels of circulating TNFα in mice after injection of LPS; assay type: in vivo; conditions: 2 hours after 25 μgr LPS, simultaneous 5 nmol peptide
Method: In an experiment carried out with mice the levels of circulating TNFα 2 hours after injection of 25 μgr. of LPS approach 4 ngr./ml. Simultaneous administration of 5 nmol of VIP or PACAP reduced said levels by 60%.

[1] = tested on: IL-6 production in peritoneal murin macrophages stimulated with LPS; test: Production of IL-6 by peritoneal murine macrophages stimulated with LPS; assay type: cell-based, mouse; conditions: for Degree of inhibition of IL-6 production when added after stimulation with LPS: peptide added at different times after LPS; for IC50: peritoneal murin macrophages stimulated with LPS, read-out: IC50 for inhibition of IL-6 production; for Highest degree of inhibition of IL-6 production: peritoneal murin macrophages, LPS 10 ngr./ml
Method: FIG. 3 represents the production of IL-6 by murin macrophages in culture (5×10^5 cells/ml) stimulated with 10 ngr/ml of LPS in presence or absence of 10^−8 M of VIP or PACAP over a period of 24 hours.
FIG. 4 represents the production of IL-6 by murin macrophages in culture (5×10^5 cells/ml) after 6 hours of culture with 10 ngr/ml of LPS and to which 10^−8 M of VIP or PACAP is added at different times.
In experiments carried out in vitro VIP and PACAP inhibit the production of IL-6 in peritoneal murin macrophages stimulated with LPS. The highest degree of inhibition reaches levels near to 90% and occurs with doses of stimulation of 10 ngr./ml of LPS.

[2] = tested on: TNFα production in peritoneal murin macrophages stimulated with LPS; test: Production of TNFα by peritoneal murine macrophages stimulated with LPS; assay type: cell-based, mouse; conditions: for Inhibitory effect on TNFα production when added after 4 hours: peptide added 4 hours after LPS; for Inhibitory effect on TNFα production when added up until 1 hour after LPS stimulation: peptide added up until 1 hour after LPS, compared with simultaneous addition; for IC50: peritoneal murin macrophages stimulated with LPS, read-out: IC50 for inhibition of TNFα production; for Highest degree of inhibition of TNFα production: peritoneal murin macrophages, LPS 1 to 10 ng/ml
Method: FIG. 1 represents the production of TNFα by murin macrophages in culture (5×10^5 […]) stimulated with 10 ngr/ml of LPS in presence or absence of 10^−8 M of VIP or PACAP over a period of 24 hours.
FIG. 2 represents the production of TNFα by murin macrophages in culture (5×10^5 cells/ml) after 6 hours of culture with 10 ngr/ml of LPS and to which 10^−8 M of VIP or PACAP is added at different times.
In experiments carried out in vitro VIP and PACAP inhibit the production of TNFα in peritoneal murin macrophages stimulated with LPS. The highest degree of inhibition reaches levels near to 60% and occurs with doses of stimulation between 1 and 10 ng/ml of LPS. The IC50 is around 80 pM, both for VIP and for PACAP and the effect was observed until the end of the experiment (see FIG. 1). The inhibitory effect is the same if both neuropeptides are added up until 1 hour after stimulating the macrophages with LPS, although it reduces progressively until disappearing if added after 4 hours (see FIG. 2).

mRNA of TNFα = test: Northern blot for TNFα mRNA in LPS-activated macrophages; assay type: cell-based, Mouse; conditions: macrophages activated with LPS and exposed to peptide
Method: as §1

[3] = tested on: lethal effects of LPS in mice; test: Survival of mice injected with a lethal dose of LPS; assay type: in vivo; conditions: 400 μgr LPS; for Survival rate, administration up to 1 hour after LPS: peptide up to 1 hour after LPS; for Survival rate at the end of the experiment: simultaneous 5 nmol peptide, 4-day period
Method: FIG. 6 represents the survival of mice injected with 400 μgr. of LPS and, either simultaneously or after 30 minutes, 1 or 4 hours, with 5 nmol. of VIP or PACAP. A. Control; B: VIP a 0 h.; C: VIP a 0.5 h; D: VIP a 1 h.; E: VIP a 4 h.;
An experiment was carried out in which the survival over a 4-day period was studied of mice that had been injected with 400 μgr. of LPS. The mortality in these circumstances was 100% after 36 hours. With simultaneous administration of 5 nmol. of VIP or PACAP a survival rate of 60% was attained at the end of the experiment. Administration of neuropeptides up to 1 hour after injection with LPS still gave survival rates near to 50%.

circulating IL-6 = test: Levels of circulating IL-6 in mice after injection of LPS; assay type: in vivo; conditions: 2 hours after 25 μgr LPS, simultaneous 5 nmol peptide
Method: In an experiment carried out with mice the levels of circulating IL-6 2 hours after injection of 25 μgr. of LPS approach 1.5 ngr./ml Simultaneous administration of 5 nmol of VIP or PACAP reduced said levels by 60% and 75% respectively.

Substance | Transcripts for IL-6 (Northern blot) (mRNA of IL-6) | Reduction of circulating TNFα levels (circulating TNFα) [%] | Degree of inhibition of IL-6 production when added after stimulation with LPS [1] | IC50 [1] [nM] | Highest degree of inhibition of IL-6 production [1] [%] | Inhibitory effect on TNFα production when added after 4 hours [2] | Inhibitory effect on TNFα production when added up until 1 hour after LPS stimulation [2] | IC50 [2] [nM] | Highest degree of inhibition of TNFα production [2] [%] | Transcripts for TNFα (Northern blot) (mRNA of TNFα) | Survival rate, administration up to 1 hour after LPS [3] [%] | Survival rate at the end of the experiment [3] [%] | Reduction of circulating IL-6 levels (circulating IL-6) [%]
HSDAVFTDNYTRLRKMAVKKYLNSILN [VIP] | absence of transcripts | 60 | progressively less | 0.0086 | ~90 | disappearing | the same | ~0.08 | ~60 | absence of transcripts | ~50 | 60 | 60
PACAP [two molecular forms PACAP-38 and PACAP-27] | absence of transcripts | 60 | progressively less | 0.0086 | ~90 | disappearing | the same | ~0.08 | ~60 | absence of transcripts | ~50 | 60 | 75
